Experimental findings from patent US10336701B2, “Pyridin-2-one derivatives of formula (II) useful as EP3 receptor antagonists” (Janssen Pharmaceutica NV, priority 2017, dated 2019) are described below.

pIC50, pKi: −log10 of the molar value.

The target of assay [1] is T1, EP3 receptor (Homo sapiens, UniProt P43115).
T1 construct: purchased Millipore HTS092M
T1 sequence (P43115 1-390): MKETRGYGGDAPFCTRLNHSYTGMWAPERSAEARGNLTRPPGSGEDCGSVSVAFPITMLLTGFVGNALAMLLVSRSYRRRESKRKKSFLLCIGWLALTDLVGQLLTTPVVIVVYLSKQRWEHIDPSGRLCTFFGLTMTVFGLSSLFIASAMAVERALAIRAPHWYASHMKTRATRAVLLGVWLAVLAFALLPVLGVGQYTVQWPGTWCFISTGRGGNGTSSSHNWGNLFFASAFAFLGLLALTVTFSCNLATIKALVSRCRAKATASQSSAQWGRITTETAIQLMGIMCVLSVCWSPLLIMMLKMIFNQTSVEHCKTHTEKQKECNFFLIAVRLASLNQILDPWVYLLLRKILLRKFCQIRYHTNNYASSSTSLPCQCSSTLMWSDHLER
The assay can be described thus: [3H]-PGE2 binding assay (EP3 competition binding). The note with it: read-out: [3H]-PGE2 Binding Ki. An outline of the steps: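 Scintillation-bead competition binding with EP3 membranes (2 μg/well), 2 nM [3H]-PGE2, 0.1% DMSO, in 50 mM Tris, 10 mM MgCl2, 1 mM EDTA, pH 7.4.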

The target of assay [2] is T1, EP3 receptor. Briefly: CHO cell cAMP assay (forskolin and sulprostone stimulated, HTRF). It is filed as cell-based. The note with it: CHO cells; sulprostone 700 nM (EC80) and FSK 2 μM (EC70), 37° C. for 30 minutes; read-out: CHO_cAMP IC50.

As to `CS(=O)(=O)N1CCC(c2ccc(-c3ccc4ccccc4c3)[nH]c2=O)CC1` [compound 186, 3-(1-(methylsulfonyl)piperidin-4-yl)-6-(naphthalen-2-yl)pyridin-2(1H)-one], the pKi in assay [1] was 7.40. For the same molecule, the pIC50 in assay [2] was 5.55.

As to `O=c1[nH]c(-c2ccc3ccccc3c2)ccc1C1CCc2oncc2C1` (stereo not drawn) [compound 187, 6-(naphthalen-2-yl)-3-(4,5,6,7-tetrahydrobenzo[d]isoxazol-5-yl)pyridin-2(1H)-one], the pKi in assay [1] is less than 5.00. Also, the pIC50 in assay [2] was less than 4.70.

For `O=C1NC(=O)C2(CCCC(c3ccc(-c4ccc5ccccc5c4)[nH]c3=O)C2)O1` (stereo not drawn) [compound 188, anti-7-(6-(naphthalen-2-yl)-2-oxo-1,2-dihydropyridin-3-yl)-1-oxa-3-azaspiro[4.5]decane-2,4-dione], the pKi in assay [1] was 7.82. In addition, the pIC50 in assay [2] is 6.92.

For the molecule `CCS(=O)(=O)N1CCC(c2ccc(-c3ccc4ccccc4c3)[nH]c2=O)CC1` [compound 190, 3-(1-(ethylsulfonyl)piperidin-4-yl)-6-(naphthalen-2-yl)pyridin-2(1H)-one], in assay [1], the pKi was 7.49. Besides, in assay [2], the pIC50 was 6.21.

Turning to `O=c1[nH]c(-c2ccc3ccccc3c2)ccc1C1CCOCC1` [compound 192, 6-(naphthalen-2-yl)-3-(tetrahydro-2H-pyran-4-yl)pyridin-2(1H)-one], the pKi in assay [1] was 7.22. The pIC50 in assay [2] was 5.88.

Take `O=c1[nH]c(-c2ccc3ccccc3c2)ccc1C1CCNCC1` [compound 194, 6-(naphthalen-2-yl)-3-(piperidin-4-yl)pyridin-2(1H)-one]: the pKi in assay [1] was less than 5.00. Also, the pIC50 in assay [2] was less than 4.70.

As for `O=c1[nH]c(-c2ccc3ccccc3c2)ccc1C1CCc2n[nH]cc2C1` (stereo not drawn) [compound 195, 6-(naphthalen-2-yl)-3-(4,5,6,7-tetrahydro-2H-indazol-5-yl)pyridin-2(1H)-one], the pKi in assay [1] was 7.38. Also, in assay [2], the pIC50 was 6.54.

For `CCn1ncc2c(F)cc(-c3ccc(C4CCC5(CCCNC5=O)CC4)c(=O)[nH]3)cc21` (stereo not drawn) [compound 196, 9-(6-(1-ethyl-4-fluoro-1H-indazol-6-yl)-2-oxo-1,2-dihydropyridin-3-yl)-2-azaspiro[5.5]undecan-1-one], the pKi in assay [1] is 8.10. Also, in assay [2], the pIC50 is 7.06.

In the case of `CCn1ncc2c(F)cc(-c3ccc(C4CCN(C(=O)CO)CC4)c(=O)[nH]3)cc21` [compound 197, 6-(1-ethyl-4-fluoro-1H-indazol-6-yl)-3-(1-(2-hydroxyacetyl)piperidin-4-yl)pyridin-2(1H)-one], in assay [1], the pKi is 6.77. Also, in assay [2], the pIC50 is 6.01.

On to `CCn1ncc2c(F)cc(-c3ccc(C4CCN(S(=O)(=O)C(C)C)CC4)c(=O)[nH]3)cc21` [compound 198, 6-(1-ethyl-4-fluoro-1H-indazol-6-yl)-3-(1-(isopropylsulfonyl)piperidin-4-yl)pyridin-2(1H)-one], for which the pKi in assay [1] was 7.72. Further, in assay [2], the negative logarithm of the IC50 (pIC50) is 6.28.

Regarding `CC(C)S(=O)(=O)N1CCC(c2ccc(-c3ccc4cc(F)ccc4c3)[nH]c2=O)CC1` [compound 199, 6-(6-fluoronaphthalen-2-yl)-3-(1-(isopropylsulfonyl)piperidin-4-yl)pyridin-2(1H)-one], the pKi in assay [1] was less than 5.00. Also, the pIC50 in assay [2] was less than 4.70.

As to `CC(C)S(=O)(=O)N1CCC(c2ccc(-c3ccc4ccccc4c3)[nH]c2=O)CC1` [compound 200, 3-(1-(isopropylsulfonyl)piperidin-4-yl)-6-(naphthalen-2-yl)pyridin-2(1H)-one], the pKi in assay [1] is 7.42. Besides, the pIC50 in assay [2] was 5.90.

Take `O=C1NC(=O)C2(CCC(c3ccc(-c4ccc5ccccc5c4)[nH]c3=O)CC2)N1` (stereo not drawn) [compound 203, 8-(6-(naphthalen-2-yl)-2-oxo-1,2-dihydropyridin-3-yl)-1,3-diazaspiro[4.5]decane-2,4-dione]: the pKi in assay [1] is 6.97. In addition, the pIC50 in assay [2] was 5.85.

For the molecule `CCn1ncc2c(F)cc(-c3ccc(C4CCCN(S(=O)(=O)C(C)C)C4)c(=O)[nH]3)cc21` (stereo not drawn) [compound 211, 6-(1-ethyl-4-fluoro-1H-indazol-6-yl)-3-(1-(isopropylsulfonyl)piperidin-3-yl)pyridin-2(1H)-one], in assay [1], the pKi is 8.30. For the same molecule, the pIC50 in assay [2] is 7.43.

`CCn1ncc2c(F)cc(-c3ccc(C4CCN(S(=O)(=O)C(C)C)C4)c(=O)[nH]3)cc21` (stereo not drawn) [compound 213, 6-(1-ethyl-4-fluoro-1H-indazol-6-yl)-3-(1-(isopropylsulfonyl)pyrrolidin-3-yl)pyridin-2(1H)-one]: the negative logarithm of the Ki (pKi) in assay [1] is 8.15. Further, in assay [2], the pIC50 is 6.55.

As for `CCn1ncc2c(F)cc(-c3ccc(C4CN(S(=O)(=O)C(C)C)C4)c(=O)[nH]3)cc21` [compound 214, 6-(1-ethyl-4-fluoro-1H-indazol-6-yl)-3-(1-(isopropylsulfonyl)azetidin-3-yl)pyridin-2(1H)-one], the pKi in assay [1] is less than 5.00. Moreover, in assay [2], the negative logarithm of the IC50 (pIC50) was less than 4.70.

On to `CC(C)C(F)(C(N)=O)c1ccc(-c2ccc3ccccc3c2)[nH]c1=O` (stereo not drawn) [compound 217, 2-fluoro-3-methyl-2-(6-(naphthalen-2-yl)-2-oxo-1,2-dihydropyridin-3-yl)butanamide], for which, in assay [1], the pKi is 7.31. Also, the pIC50 in assay [2] is 5.94.

For the molecule `NC(=O)C1(c2ccc(-c3ccc4ccccc4c3)[nH]c2=O)CCCC1` [compound 219, 1-(6-(naphthalen-2-yl)-2-oxo-2,3-dihydropyridin-3-yl)cyclopentanecarboxamide], the pKi in assay [1] is 6.97. In addition, in assay [2], the negative logarithm of the IC50 (pIC50) was 5.39.

`CC(C)C(C(=O)NS(C)(=O)=O)c1ccc(-c2ccc3ccccc3c2)[nH]c1=O` (stereo not drawn) [compound 221, 3-methyl-N-(methylsulfonyl)-2-(6-(naphthalen-2-yl)-2-oxo-1,2-dihydropyridin-3-yl)butanamide]: in assay [1], the pKi is 7.29. Further, the pIC50 in assay [2] was 6.61.

As to `CC1(c2ccc(-c3ccc4ccccc4c3)[nH]c2=O)N=CNC1=O` (stereo not drawn) [compound 222, 3-(4-methyl-5-oxo-4,5-dihydro-1H-imidazol-4-yl)-6-(naphthalen-2-yl)-1,2-dihydropyridin-2-one], the pKi in assay [1] is 6.49. In assay [2], the pIC50 was 5.37.

As for `CC1=NC(C)(c2ccc(-c3ccc4ccccc4c3)[nH]c2=O)C(=O)N1` (stereo not drawn) [compound 223, 3-(2,4-dimethyl-5-oxo-4,5-dihydro-1H-imidazol-4-yl)-6-(naphthalen-2-yl)-1,2-dihydropyridin-2-one], the pKi in assay [1] is 6.30. The negative logarithm of the IC50 (pIC50) in assay [2] was 5.45.

For the molecule `CC(C)C(F)(C(=O)NS(C)(=O)=O)c1ccc(-c2ccc3ccccc3c2)[nH]c1=O` (stereo not drawn) [compound 224, 2-fluoro-3-methyl-N-(methylsulfonyl)-2-(6-(naphthalen-2-yl)-2-oxo-1,2-dihydropyridin-3-yl)butanamide], the pKi in assay [1] was 5.89. Besides, in assay [2], the pIC50 was 4.97.

For the molecule `CC(C)C(O)(C(N)=O)c1ccc(-c2ccc3c(c2)OCCN3C)[nH]c1=O` (stereo not drawn) [compound 225, 2-hydroxy-3-methyl-2-(6-(4-methyl-3,4-dihydro-2H-benzo[b][1,4]oxazin-7-yl)-2-oxo-1,2-dihydropyridin-3-yl)butanamide], the pKi in assay [1] was 6.46. In addition, the pIC50 in assay [2] was 5.34.

Turning to `NC(=O)C(C1=CCCCC1)c1ccc(-c2ccc3ccccc3c2)[nH]c1=O` (stereo not drawn) [compound 226, 2-(cyclohex-1-en-1-yl)-2-(6-(naphthalen-2-yl)-2-oxo-1,2-dihydropyridin-3-yl)acetamide], the pKi in assay [1] was 6.73. The pIC50 in assay [2] was 5.30.

With `CC(C)C(C(=O)NCCOCCOCCN(C)C)c1ccc(-c2ccc3cccc(F)c3c2)[nH]c1=O` (stereo not drawn) [compound 229, N-(2-(2-(2-(dimethylamino)ethoxy)ethoxy)ethyl)-2-(6-(8-fluoronaphthalen-2-yl)-2-oxo-1,2-dihydropyridin-3-yl)-3-methylbutanamide], the pKi in assay [1] was 7.92. Further, the pIC50 in assay [2] was 6.85.

`CC(C)C(C)(C(N)=O)c1ccc(-c2ccc3ccccc3c2)[nH]c1=O` (stereo not drawn) [compound 232, 2,3-dimethyl-2-(6-(naphthalen-2-yl)-2-oxo-1,2-dihydropyridin-3-yl)butanamide]: the pKi in assay [1] was 6.90. Besides, in assay [2], the pIC50 is 5.79.

`CC(C)C(C(=O)NCCOCCN(C)C)c1ccc(-c2ccc3cccc(F)c3c2)[nH]c1=O` (stereo not drawn) [compound 233, N-(2-(2-(dimethylamino)ethoxy)ethyl)-2-(6-(8-fluoronaphthalen-2-yl)-2-oxo-1,2-dihydropyridin-3-yl)-3-methylbutanamide]: the pKi in assay [1] is 7.82. In assay [2], the pIC50 is 6.49.

On to `CC(C)C1(c2ccc(-c3ccc4cccc(F)c4c3)[nH]c2=O)N=C(NC#N)NC1=O` (stereo not drawn) [compound 236, N-(4-(6-(8-fluoronaphthalen-2-yl)-2-oxo-1,2-dihydropyridin-3-yl)-4-isopropyl-5-oxo-4,5-dihydro-1H-imidazol-2-yl)cyanamide], for which the pKi in assay [1] was 8.70. For the same molecule, the pIC50 in assay [2] is 8.22.

In the case of `CO/N=C1\NC(=O)C(c2ccc(-c3ccc4cccc(F)c4c3)[nH]c2=O)(C(C)C)N1` (stereo not drawn) [compound 237, (Z)-6-(8-fluoronaphthalen-2-yl)-3-(4-isopropyl-2-(methoxyimino)-5-oxoimidazolidin-4-yl)pyridin-2(1H)-one], in assay [1], the pKi was 8.40. The pIC50 in assay [2] was 7.92.

For the molecule `COc1ccc2cc(-c3ccc(C(C(=O)NCCN(C)C)C(C)C)c(=O)[nH]3)ccc2c1` (stereo not drawn) [compound 241], the pKi in assay [1] was 6.20. Further, the pIC50 in assay [2] was 5.02.
